Patent US9072766B2, “Methods of treating obesity by inhibiting nicotinamide N-methyl transferase (NNMT)” (Beth Israel Deaconess Medical Center, Inc., priority 2010, dated 2015)

Tests used:
Type in all cases: cell-based
3T3-L1 adipocytes [1] = test: Glucose uptake in 3T3-L1 adipocytes
Method: 3T3-L1 were grown in Dulbecco's Modified Eagle's Medium (Gib-co/Invitrogen, Carlsbad, Calif., USA) with 4.5 g/l glucose and 10% fetal bovine serum. Differentiation was induced in two-day-postconfluent cells by supplementing the media with 1 μM insulin, 100 nM dexamethasone, and 500 μM isobutylmethylxanthine for 48 hours, followed by media supplemented with 1 μM insulin for another 48 hours, then normal media until differentiation day 10. Fully differentiated 3T3-L1 adipocytes (day 10) in 48-well plates were serum-starved for 1 hour before incubation with Krebs-Ringer-HEPES (KRH) buffer with or without 10 nM insulin for 30 minutes, followed by addition of 1 mM, 100 nCi [3H]-2-deoxyglucose for 10 minutes. Uptake was stopped by lysing the cells with 0.1% sodium dodecyl sulfate (SDS). Lysates were transferred to liquid scintillation cocktail (Fisher […] 50% Plus) and counted in a Beckman LS counter.

3T3-L1 adipocytes [2] = test: Oxygen consumption of 3T3-L1 adipocytes
Method: 3T3-L1 were grown in Dulbecco's Modified Eagle's Medium (Gib-co/Invitrogen, Carlsbad, Calif., USA) with 4.5 g/l glucose and 10% fetal bovine serum. Differentiation was induced in two-day-postconfluent cells by supplementing the media with 1 μM insulin, 100 nM dexamethasone, and 500 μM isobutylmethylxanthine for 48 hours, followed by media supplemented with 1 μM insulin for another 48 hours, then normal media until differentiation day 10. Oxygen consumption was measured with a Rank Brothers oxygen electrode (Rank Brothers Ltd., Cambridge, UK). Cultured cells were trypsinized, counted in a hemocytometer, spun down, and resuspended in respiration buffer (PBS, 2% BSA, 4.5 g/l glucose, 120 mg/l sodium pyruvate) to 1E6/ml. Partial oxygen pressure was recorded using a Rank Brothers digital model 10 and a PowerLab 4/30 data acquisition system (ADInstruments, Colorado Springs, Colo.).

3T3-L1 adipocytes [3] = test: Lipolysis in 3T3-L1 adipocytes (glycerol release); details: cultured 3T3-L1 adipocytes (FIG. 13A)
Method: 3T3-L1 were grown in Dulbecco's Modified Eagle's Medium (Gib-co/Invitrogen, Carlsbad, Calif., USA) with 4.5 g/l glucose and 10% fetal bovine serum. Differentiation was induced in two-day-postconfluent cells by supplementing the media with 1 μM insulin, 100 nM dexamethasone, and 500 μM isobutylmethylxanthine for 48 hours, followed by media supplemented with 1 μM insulin for another 48 hours, then normal media until differentiation day 10.
Fully differentiated 3T3-L1 adipocytes (day 10) in 48-well plates were washed, and 100 μl of KRH buffer with 3% BSA and 4 g/l D-glucose with or without 100 nM isoproterenol was added to each well. After 1 hour at 37° C./5% CO2 a 50 μl aliquot from each well was transferred to a 96-well plate; 50 μl of lipolysis assay buffer (Cayman Chemical) were added, and the plate was incubated at room temperature, protected from light, for 30 min. Absorption was measured at 540 nm. A standard curve was included on each plate to allow calculation of the glycerol concentration in the supernatants.

Q: `CNC(=O)c1cccnc1` [N-methylnicotinamide] was tested. Which insulin-dependent glucose uptake (3T3-L1 adipocytes [1]; 3T3-L1 adipocytes (FIG. 13B)) did it give?
A: stimulated

Q: What about the basal glucose uptake (3T3-L1 adipocytes [1]; no insulin (FIG. 15B)) of the same compound?
A: stimulated

Q: What about the “submaximally insulin-induced glucose uptake” value (3T3-L1 adipocytes [1]; submax insulin (FIG. 15C)) of the same compound?
A: stimulated

Q: And the “glucose uptake, co-administration with DFMO relative to DFMO alone” value (3T3-L1 adipocytes [1]; submax insulin stimulation (FIG. 15C))?
A: increase

Q: And the “oxygen consumption in differentiated 3T3-L1 adipocytes” value (3T3-L1 adipocytes [2]; FIG. 12C)?
A: increased

Q: And the “oxygen consumption (FIG. 15A)” value (3T3-L1 adipocytes [2]; text: cultured hepatoma cells, legend: 3T3-L1 adipocytes)?
A: stimulated

Q: And the “lipolysis (glycerol released into the culture supernatant)” value (3T3-L1 adipocytes [3])?
A: increased
